Where “and” joins values, the source holds several entries; their conditions need not be identical. Equal values may be shown once.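 All cell lines were grown in 96-well plates and treated with compound for 48 hours. GI50: concentration for 50% inhibition of growth. TGI marks complete inhibition of growth.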
Columns and labels:
Experiment in all cases: NCI-60 cell line screen, 48 h
[1] = test system: SK-MEL-28 melanoma
[2] = test system: HL-60(TB) leukemia
[3] = test system: UO-31 renal
[4] = test system: UACC-257 melanoma
[5] = test system: HOP-62 NSCLC
[6] = test system: OVCAR-3 ovarian
[7] = test system: M14 melanoma
[8] = test system: NCI-H522 lung
[9] = test system: EKVX NSCLC
[10] = test system: SNB-75 CNS

Compound: N#Cc1c(-c2ccco2)cc(-c2ccccc2)[nH]c1=O
- TGI [1]: > 100 µM
- TGI [2]: > 100 µM
- TGI [3]: > 100 µM
- TGI [4]: > 100 µM
- TGI [5]: > 100 µM
- TGI [6]: > 100 µM
- TGI [7]: > 100 µM
- TGI [8]: > 100 µM
- TGI [9]: > 100 µM
- TGI [10]: > 100 µM

Compound: Cc1cc2c(cc1Cl)S/C(=C/C(=O)O)C(Nc1cccc3nsnc13)=NS2(=O)=O
- GI50 [1]: 8.06 µM
- TGI [1]: 19.4 µM
- GI50 [2]: 7.63 µM
- TGI [2]: > 32.5 µM
- GI50 [3]: > 51.1 µM
- TGI [3]: > 79.2 µM
- GI50 [4]: > 57.9 µM
- TGI [4]: > 70.7 µM
- GI50 [5]: > 54.8 µM
- TGI [5]: > 66.9 µM
- GI50 [6]: 47.5 µM
- TGI [6]: > 69.8 µM
- GI50 [7]: > 47 µM
- TGI [7]: > 60.5 µM
- GI50 [8]: 30.7 µM
- TGI [8]: > 77.4 µM
- GI50 [9]: > 10.5 µM
- TGI [9]: > 19.9 µM
- GI50 [10]: > 100 µM
- TGI [10]: > 100 µM

Compound: COc1cc2nc(-c3ccc(C(F)(F)F)cc3)cc(OCCCN3CCCC3)c2cc1OC
- GI50 [1]: 1.69 µM
- TGI [1]: 5.65 µM
- GI50 [2]: 1 µM
- TGI [2]: 5.86 µM
- GI50 [3]: 1.59 µM
- TGI [3]: 14.2 µM
- GI50 [4]: 1.37 µM
- TGI [4]: 8.51 µM
- GI50 [5]: 1.42 µM
- TGI [5]: 18.5 µM
- GI50 [6]: 4.07 µM
- TGI [6]: > 42.2 µM
- GI50 [7]: 0.303 µM
- TGI [7]: 1.05 µM
- GI50 [8]: 1.15 µM
- TGI [8]: 25.8 µM
- GI50 [9]: 0.848 µM
- TGI [9]: 24.5 µM
- GI50 [10]: 0.207 µM
- TGI [10]: 4.49 µM

Compound: O=C1/C(=C/c2ccc([N+](=O)[O-])cc2)COc2ccc(O)cc21
- GI50 [1]: 5.11 µM
- TGI [1]: 22.9 µM
- GI50 [2]: 2.48 µM
- TGI [2]: 7.92 µM
- GI50 [3]: 1.45 µM
- TGI [3]: 3.6 µM
- GI50 [4]: 32.1 µM
- TGI [4]: > 100 µM
- GI50 [5]: 49.8 µM
- TGI [5]: > 100 µM
- GI50 [6]: 3.26 µM
- TGI [6]: 11.8 µM
- GI50 [7]: 7.78 µM
- TGI [7]: > 100 µM
- GI50 [8]: 2.05 µM
- TGI [8]: 6.05 µM
- GI50 [9]: 42.7 µM
- TGI [9]: > 100 µM
- GI50 [10]: > 100 µM
- TGI [10]: > 100 µM

Compound: CC1OC(c2ccc3c(c2O)C(=O)C2=C(C3=O)C3(O)C(=O)CC(C)(O)CC3(O)C=C2)CC(O)C1O (stereo not given)
- TGI [1]: 29.4 µM
- TGI [2]: 4.07 µM
- TGI [3]: 36.9 µM
- TGI [4]: 29.3 µM
- TGI [5]: 60.7 µM
- TGI [6]: 15.8 µM
- TGI [7]: 30.7 µM
- TGI [8]: 5.86 µM
- TGI [9]: 33.9 µM
- TGI [10]: 48.7 µM

Compound: Cc1ccc(NC(=O)/C(Cc2cc(=O)oc3cc(O)ccc23)=N\NC(=O)C[N+](C)(C)C)cc1C
- TGI [1]: > 100 µM
- TGI [2]: > 100 µM
- TGI [3]: > 100 µM
- TGI [4]: > 100 µM
- TGI [5]: > 100 µM
- TGI [6]: > 100 µM
- TGI [7]: > 100 µM
- TGI [8]: > 100 µM
- TGI [9]: > 100 µM
- TGI [10]: > 100 µM

Compound: Cc1c2ccncc2c(C)c2c1[nH]c1ccc(O)c(OCC(F)(F)F)c12
- TGI [1]: 22.4 µM
- TGI [2]: 11.6 µM
- TGI [3]: 19.9 µM
- TGI [4]: 21.4 µM
- TGI [5]: 20.9 µM
- TGI [6]: 19 µM
- TGI [7]: 19.7 µM
- TGI [8]: 15.9 µM
- TGI [9]: 20.5 µM
- TGI [10]: 21.1 µM

Compound: CCN(CC)c1ccc(/C=C/C2=[N+](C)c3ccccc3C2(C)C)c(C)c1
- GI50 [1]: 0.151 µM
- TGI [1]: 2.73 µM
- GI50 [2]: 0.0367 µM
- TGI [2]: 0.138 µM
- GI50 [3]: 0.088 µM
- TGI [3]: 2.53 µM
- GI50 [4]: 0.0546 µM
- TGI [4]: 0.226 µM
- GI50 [5]: 0.0983 µM
- TGI [5]: 1.74 µM
- GI50 [6]: 0.0616 µM
- TGI [6]: 1.47 µM
- GI50 [7]: 0.0853 µM
- TGI [7]: 1.64 µM
- GI50 [8]: 0.0482 µM
- TGI [8]: 0.269 µM
- GI50 [9]: 0.0466 µM
- TGI [9]: 7.86 µM
- GI50 [10]: 0.0736 µM
- TGI [10]: 0.876 µM

Compound: CC(C)(C)NCC(COc1ccc([N+](=O)[O-])cc1)OP(c1ccccc1)c1ccccc1 (stereo not given)
- TGI [1]: > 100 µM
- TGI [2]: 47.3 µM
- TGI [3]: > 100 µM
- TGI [4]: > 100 µM
- TGI [5]: > 100 µM
- TGI [6]: > 100 µM
- TGI [7]: > 100 µM
- TGI [8]: 69.5 µM
- TGI [9]: > 100 µM
- TGI [10]: > 100 µM

Compound: O=C(NCCN1CCNCC1)c1ccc(Nc2nc3ccccc3c3occc23)cc1
- GI50 [1]: 2.57 µM
- TGI [1]: 8.45 µM
- GI50 [2]: 17.6 µM
- TGI [2]: 33.5 µM
- GI50 [3]: 11.1 µM
- TGI [3]: 27.9 µM
- GI50 [4]: 17 µM
- TGI [4]: 33.8 µM
- GI50 [5]: 10.3 µM
- TGI [5]: 22.4 µM
- GI50 [6]: 14.5 µM
- TGI [6]: 80.1 µM
- GI50 [7]: 1.94 µM
- TGI [7]: 3.98 µM
- GI50 [8]: 10.3 µM
- TGI [8]: 28.3 µM
- GI50 [9]: 9.45 µM
- TGI [9]: 27.2 µM
- GI50 [10]: 7.06 µM
- TGI [10]: 25.9 µM

Compound: N#C/C(=C1\SC(N=Nc2ccc(Cl)cc2)C(=O)N1c1ccccc1)c1nc2ccccc2[nH]1 (stereo not given)
- TGI [1]: > 100 µM
- TGI [2]: > 100 µM
- TGI [3]: 40 µM
- TGI [4]: 92.6 µM
- TGI [5]: 35.4 µM
- TGI [6]: 69 µM
- TGI [7]: > 100 µM
- TGI [8]: 79.9 µM
- TGI [9]: > 100 µM
- TGI [10]: 65.5 µM

Compound: COC(=O)C1C(=O)N(CCc2c[nH]c3ccccc23)C[C@@H]2CCC(=O)C[C@H]12 (stereo not given in full)
- TGI [1]: > 100 µM
- TGI [2]: > 100 µM
- TGI [3]: > 100 µM
- TGI [4]: > 100 µM
- TGI [5]: > 100 µM
- TGI [6]: > 100 µM
- TGI [7]: > 100 µM
- TGI [8]: > 100 µM
- TGI [9]: > 100 µM
- TGI [10]: > 100 µM

Compound: CCOc1ccc(Nc2c3ccccc3nc3ccccc23)cc1
- GI50 [1]: 0.855 µM and 0.378 µM
- TGI [1]: 6.51 µM and 2.32 µM
- GI50 [2]: 1.58 µM and 0.545 µM
- TGI [2]: 5.15 µM and 2.54 µM
- GI50 [3]: 0.677 µM and 0.356 µM
- TGI [3]: 3.99 µM and 3.74 µM
- GI50 [4]: 0.552 µM and 0.888 µM
- TGI [4]: 2.22 µM and 6.32 µM
- GI50 [5]: 0.416 µM and 0.672 µM
- TGI [5]: 5.25 µM and 13.1 µM
- GI50 [6]: 0.313 µM and 0.264 µM
- TGI [6]: 1.17 µM and 1.03 µM
- GI50 [7]: 0.359 µM and 0.312 µM
- TGI [7]: 1.51 µM and 1.69 µM
- GI50 [8]: 0.214 µM and 0.319 µM
- TGI [8]: 1.44 µM and 11.8 µM
- GI50 [9]: 0.863 µM and 0.613 µM
- TGI [9]: 7.56 µM and 6.1 µM
- GI50 [10]: 0.309 µM and 0.25 µM
- TGI [10]: 3.39 µM and 1.52 µM

Compound: COc1ccc(-c2c(C3=NCCCN3)nnn2-c2ccc([N+](=O)[O-])cc2)cc1
- TGI [1]: > 100 µM
- TGI [2]: > 100 µM
- TGI [3]: > 100 µM
- TGI [4]: > 100 µM
- TGI [5]: > 100 µM
- TGI [6]: > 100 µM
- TGI [7]: > 100 µM
- TGI [8]: > 100 µM
- TGI [9]: > 100 µM
- TGI [10]: > 100 µM

Compound: O=C(/C=C/c1cccc(O)c1)c1cccc(-n2cc(-c3ccc4ccccc4c3)[nH]c2=O)c1
- GI50 [1]: 3.79 µM
- TGI [1]: 12.4 µM
- GI50 [2]: 1.01 µM
- TGI [2]: 3.21 µM
- GI50 [3]: 1.26 µM
- TGI [3]: 2.64 µM
- GI50 [4]: 4.13 µM
- TGI [4]: 18.4 µM
- GI50 [5]: 2.26 µM
- TGI [5]: 4.29 µM
- GI50 [6]: 1.33 µM
- TGI [6]: 2.78 µM
- GI50 [7]: 1.49 µM
- TGI [7]: 3.07 µM
- GI50 [8]: 1.29 µM
- TGI [8]: 2.9 µM
- GI50 [9]: 2.64 µM
- TGI [9]: 13.9 µM
- GI50 [10]: 1.88 µM
- TGI [10]: 5.93 µM
